Test results reported in publication PMC11662004 (Communications Chemistry, 2024).
Where “and” joins values, the source holds several entries; their conditions need not be identical. Equal entries are not always repeated. Where two headings read alike, the source gives them in different places.

Experiments:
NgTet1 [1] = target: T1, NgTet1 (Naegleria gruberi, UniProt D2W6T1); experiment: biochemical; conditions: for potency change in the presence of non-substrate 5HC DNA: uncoupled 2OG turnover; for IC50: 5 μM NgTet1, 50 μM 2OG
T1 construct: His6-tagged full-length Naegleria gruberi NgTet1 (321 a. a.) protein with a thrombin cleavage site; made in house; host or cells: E. coli BL21(DE3)
T1 sequence (D2W6T1 1-321): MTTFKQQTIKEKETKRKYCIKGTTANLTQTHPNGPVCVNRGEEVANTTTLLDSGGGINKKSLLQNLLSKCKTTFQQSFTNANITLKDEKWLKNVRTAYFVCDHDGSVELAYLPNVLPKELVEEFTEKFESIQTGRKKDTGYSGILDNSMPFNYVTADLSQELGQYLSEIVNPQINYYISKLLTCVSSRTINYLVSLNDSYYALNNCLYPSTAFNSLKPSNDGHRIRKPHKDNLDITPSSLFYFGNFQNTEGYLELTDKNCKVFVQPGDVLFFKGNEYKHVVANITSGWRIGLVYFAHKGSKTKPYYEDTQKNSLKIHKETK
Method: (§1) Activity was normalised against reactions containing vehicle (DMSO). […] AS data shown as the mean of three experimental replicates (n = 3; mean ± SD); ^1H NMR data plotted from two independent replicates (n = 2); tabulated data reported as the mean of two and three independent replicates for ^1H NMR and AS, respectively (n = 2–3, SD reported for n = 3). N. d.: not determined; AS: AlphaScreen.
(§2) All ^1H NMR spectra were recorded at 25 °C using D2O as a reference for internal deuterium lock on a Bruker Avance III 700 MHz equipped with an inverse TCI cryoprobe in 3 or 5 mm diameter tubes with a total sample volume of 160 or 565 μL, respectively. The water signal was reduced using Perfect Echo excitation sculpting suppression. Chemical shifts are reported in ppm relative to D2O (δH = 4.70 ppm).
NgTet1 was pre-incubated with inhibitor dilution series in DMSO-d6 at room temperature for 10 min (50 mM Tris-d11 [pH 7.5], 2% v/v DMSO-d6). Reactions were initiated by the addition of appropriate cofactors and DNA. […] The reactions were quenched by the addition of 9 mM NOG and 9 mM ZnCl2 in 90 mM Tris-d11 [pH 7.5] (20 μL) within the enzyme linear activity window (determined in Figure. S10). Samples were transferred to NMR tubes and subjected to ^1H NMR analysis. Data were processed as described above. Inhibition data was normalised to reactions containing vehicle only (1% v/v DMSO-d6) and fitted using “log(inhibitor) vs. response - Variable slope (four parameters)” non-linear regression model on GraphPad Prism 5.
Activity was normalised against reactions containing vehicle only (100% activity). Data is shown as the mean of 2 independent replicates (n = 2; […]
Fig. S10 Determination of linear NgTet1 enzymatic activity windows for inhibitor characterisation. a 1H NMR succinate detection time courses with no DNA, 5HC DNA (double- […]
complementary 5'-ACC AC5mC GGT GGT-3'). b AlphaScreen 5hmC detection time course using […]
courses shown. 1H NMR reaction conditions: 5 μM NgTet1, 2 mM sodium L-ascorbate, 100 μM […]
v/v D2O. DNA was added to a final concentration of 20 μM of double-stranded DNA. […]

NgTet1 [2] = target: T1, NgTet1; experiment: biochemical; conditions: for normalised activity, %: AlphaScreen
Method: (Fig. 5a), were screened for inhibitory activity against NgTet1.
as §1
Compounds in DMSO (100 nL) were pre-dispensed in a logarithmically linear concentration gradient onto 384-well ProxiPlates using an Echo® 550 acoustic liquid handler (Labcyte). NgTet1 was pre-incubated with the inhibitor dilution series in DMSO at room temperature for 10 min. Reactions were initiated by the addition of appropriate cofactors and DNA. […] The reactions were quenched by the addition of 30 mM EDTA (pH 4.2), 358 mM NaCl (5 μL) within the enzyme linear activity window (determined in Fig. S10). Concurrently, a mixture containing the anti-^5hmC antibody (1:2000 dilution) and AlphaScreen beads (1:62.5 dilution) in assay buffer was prepared and incubated at room temperature for 30 min. The AlphaScreen bead/antibody mixture was added to the quenched NgTet1 reactions (5 μL), and the complete mixture was incubated at room temperature for 1 h. Chemiluminescence was measured on a PHERAstar FS/FSX (BMG Labtech) equipped with an AlphaScreen 680 570 module. All AlphaScreen bead manipulations were performed under subdued lighting. Inhibition data was normalised to reactions containing vehicle only (1% v/v DMSO) and fitted using “log(inhibitor) vs. response—Variable slope (four parameters)” non-linear regression model on GraphPad Prism 5.

NgTet1 [3] = target: T1, NgTet1; format: biochemical; conditions: for Km: read-out: KM^app (2OG)
Method: Double-stranded 12 bp DNA oligomers were added at a final concentration of 20 µM. […]
Double-stranded DNA oligomers were added at a final concentration of 20 µM. […]
as §2
Spectrometer settings were determined using a control sample containing all reaction components excluding enzyme. TET enzyme was added to an identical sample, and the resulting assay mixture was transferred to an NMR tube before deposition into the instrument. […] Spectrum recordings were carried out consecutively without delay. Data were processed using automated routines on MestReNova v14.2.0; signals of interest were integrated with absolute intensity scaling. ^1H NMR time courses reported in figures are representative results from two or three independent replicates.

[4] = 5HC DNA, NMR, -Log[inhibitor] (M) 3
[5] = 5HC DNA, NMR, -Log[inhibitor] (M) 4
[6] = 5HC DNA, NMR, -Log[inhibitor] (M) 4.5
[7] = 5HC DNA, NMR, -Log[inhibitor] (M) 5
[8] = 5HC DNA, NMR, -Log[inhibitor] (M) 5.5
[9] = 5HC DNA, NMR, -Log[inhibitor] (M) 6
[10] = 5HC DNA, NMR, -Log[inhibitor] (M) 6.5
[11] = 5HC DNA, NMR, -Log[inhibitor] (M) 7
[12] = 5HC DNA, NMR, -Log[inhibitor] (M) 7.5
[13] = IC50, 5mC DNA, NMR, 2OG decarboxylation with 20 µM 5mC DNA
[14] = IC50, No DNA, NMR, uncoupled 2OG decarboxylation, no DNA

Structure (SMILES): O=C(O)c1ccnc(C(=O)O)c1 [2,4-PDCA, 2,4-pyridinedicarboxylic acid]
- potency change in the presence of non-substrate 5HC DNA (NgTet1 [1]; 1H NMR): < 2 fold
- IC50 (NgTet1 [1]; 2OG decarboxylation with 20 µM 5HC DNA, read-out: IC50, 5HC DNA, NMR): 4.27 µM
- normalised activity, % (NgTet1 [1]; [4]): -0.17% and 2.97%
- normalised activity, % (NgTet1 [1]; 5HC DNA, NMR, -Log[inhibitor] (M) 3.5): 6.05%
- normalised activity, % (NgTet1 [1]; [5]): 6.05% and 7.57%
- normalised activity, % (NgTet1 [1]; [6]): 13.51%
- normalised activity, % (NgTet1 [1]; [7]): 30.08%
- normalised activity, % (NgTet1 [1]; [8]): 63.79% and 61.71%
- normalised activity, % (NgTet1 [1]; [9]): 84.73% and 86.47%
- normalised activity, % (NgTet1 [1]; [10]): 94.82% and 93.19%
- normalised activity, % (NgTet1 [1]; [11]): 100.33%
- normalised activity, % (NgTet1 [1]; [12]): 99.56% and 98%
- normalised activity, % (NgTet1 [1]; 5mC DNA, NMR, 2,4-PDCA series -Log[inhibitor] (M) 3): 1.811% and 1.747%
- normalised activity, % (NgTet1 [1]; 5mC DNA, NMR, -Log[inhibitor] (M) 3.47712): 1.338% and 1.107%
- normalised activity, % (NgTet1 [1]; 5mC DNA, NMR, -Log[inhibitor] (M) 3.95424): 2.094% and 0.5576%
- normalised activity, % (NgTet1 [1]; 5mC DNA, NMR, -Log[inhibitor] (M) 4.43136): 2.845% and 5.31%
- normalised activity, % (NgTet1 [1]; 5mC DNA, NMR, -Log[inhibitor] (M) 4.90848): 7.1385% and 9.765%
- normalised activity, % (NgTet1 [1]; 5mC DNA, NMR, -Log[inhibitor] (M) 5.38561): 30.9766% and 31.0028%
- normalised activity, % (NgTet1 [1]; 5mC DNA, NMR, -Log[inhibitor] (M) 5.86273): 71.7609% and 72.2416%
- normalised activity, % (NgTet1 [1]; 5mC DNA, NMR, -Log[inhibitor] (M) 6.33985): 92.2674% and 93.2727%
- normalised activity, % (NgTet1 [1]; 5mC DNA, NMR, -Log[inhibitor] (M) 6.81697): 96.6317% and 94.5918%
- normalised activity, % (NgTet1 [1]; 5mC DNA, NMR, -Log[inhibitor] (M) 7.29409): 100.253% and 99.2143%
- IC50 (NgTet1 [1]; [13]): 2.45 µM
- IC50 (NgTet1 [1]; [14]): 8.13 µM
- normalised activity, % (NgTet1 [1]; No DNA, NMR, -Log[inhibitor] (M) 3): 1.858% and 5.513%
- normalised activity, % (NgTet1 [1]; No DNA, NMR, -Log[inhibitor] (M) 3.47712): 5.794% and 4.915%
- normalised activity, % (NgTet1 [1]; No DNA, NMR, -Log[inhibitor] (M) 3.95424): 6.819% and 9.688%
- normalised activity, % (NgTet1 [1]; No DNA, NMR, -Log[inhibitor] (M) 4.43136): 23.271% and 23.2057%
- normalised activity, % (NgTet1 [1]; No DNA, NMR, -Log[inhibitor] (M) 4.90848): 39.7721% and 42.1215%
- normalised activity, % (NgTet1 [1]; No DNA, NMR, -Log[inhibitor] (M) 5.38561): 73.0359% and 62.1963%
- normalised activity, % (NgTet1 [1]; No DNA, NMR, -Log[inhibitor] (M) 5.86273): 95.5986% and 84.3948%
- normalised activity, % (NgTet1 [1]; No DNA, NMR, -Log[inhibitor] (M) 6.33985): 102.544% and 92.4597%
- normalised activity, % (NgTet1 [1]; No DNA, NMR, -Log[inhibitor] (M) 6.81697): 101.45% and 102.432%
- normalised activity, % (NgTet1 [1]; No DNA, NMR, -Log[inhibitor] (M) 7.29409): 100.407% and 97.5514%
- normalised activity, % (NgTet1 [2]; -Log[inhibitor] (M) 8.03235): 118.908% and 105.933% and 106.512% and 100% and 103.458% and 100.779% and 97.3678%
- IC50 (NgTet1 [2]; read-out: IC50, 5mC ssDNA, AS): 3.24 µM

Structure (SMILES): O=C(O)CCC(=O)C(=O)O [2OG, 2-oxoglutarate]
- decrease of 2OG KM^app on substrate saturation (NgTet1 [3]; 20 µM 5mC DNA vs no DNA): ~2 fold
- Vmax^app (NgTet1 [3]; No DNA): 2.83 µM/min
- kcat^app (NgTet1 [3]; No DNA): 0.0095 s⁻¹
- Km (NgTet1 [3]; No DNA, 5 μM NgTet1): 284 µM
- Km (NgTet1 [3]; with 20 µM 5mC DNA): 150 µM
- Vmax^app (NgTet1 [3]; with 20 µM 5mC DNA): 8.31 µM/min

Structure (SMILES): O=C(O)c1ccc(O)c2ncccc12 [IOX1, 5-carboxy-8-hydroxyquinoline]
- potency change in the presence of non-substrate 5HC DNA (NgTet1 [1]; 1H NMR): < 2 fold
- normalised activity, % (NgTet1 [1]; [4]): 3.36% and 6.05%
- normalised activity, % (NgTet1 [1]; [5]): 65.88% and 69.85%
- normalised activity, % (NgTet1 [1]; [6]): 102.42% and 107.78%
- normalised activity, % (NgTet1 [1]; [7]): 115.52% and 112.71%
- normalised activity, % (NgTet1 [1]; [8]): 111.12% and 108.5%
- normalised activity, % (NgTet1 [1]; [9]): 104.59% and 105.6%
- normalised activity, % (NgTet1 [1]; [10]): 111.93% and 98%
- normalised activity, % (NgTet1 [1]; [11]): 104.59% and 103.37%
- normalised activity, % (NgTet1 [1]; [12]): 102.45% and 101.86%
- potency decreased relative to AS assay (NgTet1 [1]; 5mC DNA substrate-saturating conditions, 1H NMR): 5 fold
- IC50 (NgTet1 [1]; IC50, 5HC DNA, NMR, 2OG decarboxylation with 20 µM 5HC DNA): 110 µM
- IC50 (NgTet1 [1]; [13]): 123 µM
- IC50 (NgTet1 [1]; [14]): 57.5 µM
- IC50 (NgTet1 [2]): 26.3 µM
- normalised activity, % (NgTet1 [2]; -Log[inhibitor] (M) 4.00432): -0.5677% and -0.5665% and -1.091%
- normalised activity, % (NgTet1 [2]; -Log[inhibitor] (M) 4.5272): 43.4249% and 52.8284% and 51.0837%
- normalised activity, % (NgTet1 [2]; -Log[inhibitor] (M) 5.00432): 78.4888% and 85.3739% and 75.186%
- normalised activity, % (NgTet1 [2]; -Log[inhibitor] (M) 5.60638): 80.6565% and 92.476% and 89.0303%
- normalised activity, % (NgTet1 [2]; -Log[inhibitor] (M) 6.0945): 91.4843% and 93.7065% and 96.6507%
- normalised activity, % (NgTet1 [2]; -Log[inhibitor] (M) 6.61738): 100.743% and 110.536% and 100.94%
- normalised activity, % (NgTet1 [2]; -Log[inhibitor] (M) 7.0945): 88.4496% and 111.251% and 97.2074%
- normalised activity, % (NgTet1 [2]; -Log[inhibitor] (M) 7.69656): 87.9129% and 106.34% and 94.3692%
- normalised activity, % (NgTet1 [2]; -Log[inhibitor] (M) 8.20844): 99.4426% and 116.115% and 101.926%
- normalised activity, % (NgTet1 [2]; -Log[inhibitor] (M) 8.73132): 100% and 102.574%
